Data from patent publication US9233093B2, “Composition and/or method for preventing recurrence of stroke” (MOCHIDA PHARMACEUTICALS CO., LTD., priority 2006, dated 2016).
Where “and” joins values, the source holds several entries; their conditions need not be identical. Equal values may be shown once.

Experiments:
[1] = test system: hyperlipidemia patients having history of stroke (onset/recurrence of stroke); assay: DELIS (Japan EPA Lipid Intervention Study) partial analysis: recurrence of stroke over 5 years in patients with history of stroke; assay type: in vivo, human; set-up: Inhibition Rate (%): concentration or dose not given beside the values; details: for Incidence rate (%) of EPA-E group: TG less than 400 mg/dL; for Inhibition Rate (%): vs control group; for reduction of the incidence rate of stroke (in words): time course 1 to 5 years
Description: This trial is a partial analysis of the results obtained in DELIS (Japan EPA Lipid Intervention Study), a large scale clinical trial of high purity EPA preparation which was presented at the American College of Cardiology 2005 Annual Meeting.
Specifically, of the 18,645 subject patients in the DELIS trial (hyperlipidemia patients with serum T-Cho concentration of 250 mg/dl or more, at ages of 40 to 75 for male and […] to 75 for female; the patients within six months from the onset of stroke were excluded in order to exclude patients in the acute period of the stroke from the trial subjects) (EPA-E group (9,326 cases) and control group (9,319 cases)), 485 subjects from the EPA-E group and 457 subjects from the control group, having history of stroke (cerebral thrombosis, cerebral embolism, intracerebral hemorrhage, subarachnoid hemorrhage, and transient ischemic attack) were observed and analyzed for the recurrence of stroke during the period of 5 years from the start of the administration. Further, for the cases where serum TG/HDL-C ratio was known (but excluding the cases where TG value was 400 mg/dl or more), results from the subjects divided into three groups based on the serum TG/HDL-C ratio at the time of registration were also analyzed. The EPA-E group was orally administered with Epadel (Mochida Pharmaceutical Co., Ltd.) typically at an adult dose of 600 mg per administration and 3 times a day immediately after the meal. However, in the cases having abnormal serum TG, the dose could be increased up to 900 mg per administration and 3 times a day, depending on the abnormality. In both groups, pravastatin sodium (Mevalotin™ tablets and fine granules, Sankyo Co., Ltd.), simvastatin (Lipovas™ tablets, Banyu Pharmaceutical Co., Ltd.), or atorvastatin calcium hydrate (Lipitor™ tablets, Astellas Pharma Inc. and Pfizer) was used as a base drug (basal treatment), which was orally administered according to a predetermined dosage regimen.
The number of onset (recurrence) of stroke, the incidence rate (%), and the odds ratio for the EPA-E group in relation to the control group during the observation period of 5 years are shown in Table 1. The odds ratio was calculated by the equation of (incidence rate of the EPA-E group)/(incidence rate of the control group), and the inhibition rate of onset of stroke was calculated by the equation of {((incidence rate of stroke for the control group)−(incidence rate of stroke for the EPA-E group))/(incidence rate of stroke for the control group)}×100.
Further, the data described above were statistically analyzed by taking biases in the background (smoking habit, diabetes, etc.) between the groups into consideration.
Similarly, for the cases where serum TG/HDL-C ratio was known (but excluding the cases where TG value was 400 mg/dl or more), each of the three groups of subjects, which are divided based on the serum TG/HDL-C ratio at the time of registration, was analyzed on the number of onset (recurrence) of stroke, the incidence rate (%), and the odds ratio for the EPA-E group in relation to the control group during the observation period of 5 years, as shown in Table 4. The odds ratio was calculated by the equation of (incidence rate of the EPA-E group)/(incidence rate of the control group), and the inhibition rate of onset of stroke was calculated by the equation of {((incidence rate of stroke for the control group)−(incidence rate of stroke for the EPA-E group))/(incidence rate of stroke for the control group)}×100.

[2] = test system: hyperlipidemia patients (cardiac events); details: use in combination with statin; large scale clinical trial; cited from earlier work
[3] = after 1 year, serum TG/HDL-C ratio 3.75 or more
[4] = after 2 years, serum TG/HDL-C ratio 3.75 or more
[5] = after 3 years, serum TG/HDL-C ratio 3.75 or more
[6] = after 4 years, serum TG/HDL-C ratio 3.75 or more
[7] = after 5 years, serum TG/HDL-C ratio 3.75 or more
[8] = all patients with history of stroke, 5 years
[9] = cerebral thrombosis, patients with history of stroke, 5 years
[10] = serum TG/HDL-C ratio at registration less than 1, TG less than 400 mg/dl, 5 years
[11] = total of infarction type diseases, patients with history of stroke, 5 years

CC/C=C\C/C=C\C/C=C\C/C=C\C/C=C\CCCC(=O)OCC [EPA-E, ethyl icosapentate]
Incidence rate (%) in EPA-E group ([1]; after 1 year, all patients with history of stroke, analyzed taking background biases into consideration): 2.1%
Incidence rate (%) of EPA-E group [1, 3]: 1.5%
Inhibition Rate (%) [1, 3]: 17%
Incidence rate (%) in EPA-E group ([1]; after 2 years, all patients with history of stroke, bias-adjusted analysis): 3.6%
Inhibition Rate (%) ([1]; after 2 years, all patients with history of stroke): 8%
Incidence rate (%) of EPA-E group [1, 4]: 2.9%
Inhibition Rate (%) [1, 4]: 53%
Incidence rate (%) in EPA-E group ([1]; after 3 years, all patients with history of stroke, bias-adjusted analysis): 4.7%
Inhibition Rate (%) ([1]; after 3 years, all patients with history of stroke): 16%
Incidence rate (%) of EPA-E group [1, 5]: 4.4%
Inhibition Rate (%) [1, 5]: 29%
Incidence rate (%) in EPA-E group ([1]; after 4 years, all patients with history of stroke, bias-adjusted analysis): 5.7%
Inhibition Rate (%) ([1]; after 4 years, all patients with history of stroke): 35%
Incidence rate (%) of EPA-E group [1, 6]: 5.2%
Inhibition Rate (%) [1, 6]: 55%
Incidence rate (%) in EPA-E group ([1]; after 5 years, all patients with history of stroke, bias-adjusted analysis): 7.4%
Inhibition Rate (%) ([1]; after 5 years, all patients with history of stroke): 37%
Incidence rate (%) of EPA-E group [1, 7]: 7.4%
Inhibition Rate (%) [1, 7]: 48%
Odds ratio (incidence rate of EPA-E group/incidence rate of control group) [1, 8]: 0.648
reduction of incidence rate of stroke compared with the control group [1, 8]: about 35%
Stroke cases/All cases ([1]; all patients with history of stroke, observation period of 5 years, Epadel 600 mg 3 times a day (up to 900 mg) plus statin base drug): 33/485
reduction of the incidence rate of stroke (in words) ([1]; all patients with history of stroke): significant at 3 years or later after the start of the administration
Stroke cases/All cases, cerebral thrombosis [1, 9]: 13/485
incidence rate, cerebral thrombosis [1, 9]: (2.9%)
number of cases and incidence rates of hemorrhage type diseases vs control group ([1]; hemorrhage type diseases, patients with history of stroke): lower
reduction of the incidence rate of stroke (in words) ([1]; patients with serum TG/HDL-C ratio 3.75 or more): significant at 3 years or later after the start of the administration
reduction of incidence rate of stroke compared to the control group ([1]; serum TG/HDL-C ratio 1 or more but less than 3.75, 5 years): about 36%
reduction of incidence rate of stroke compared to the control group ([1]; serum TG/HDL-C ratio 3.75 or more, 5 years): about 48%
Odds ratio (incidence rate of EPA-E group/incidence rate of control group) ([1]; serum TG/HDL-C ratio at registration 1 to 3.75, 5 years): 0.640
Stroke cases/All cases ([1]; serum TG/HDL-C ratio at registration 1 to 3.75, TG less than 400 mg/dl, 5 years): 14/244
Odds ratio (incidence rate of EPA-E group/incidence rate of control group) ([1]; serum TG/HDL-C ratio at registration 3.75 or more, 5 years): 0.519
Stroke cases/All cases ([1]; serum TG/HDL-C ratio at registration 3.75 or more, TG less than 400 mg/dl, 5 years): 10/135
Stroke cases/All cases [1, 10]: no onset of stroke was observed and 0/18
incidence rate of stroke [1, 10]: (0.0) %
Stroke cases/All cases, total of infarctions [1, 11]: 28/485
incidence rate, total of infarctions [1, 11]: (6.20) %
inhibiting cardiac events [2]: effective
